Square brackets hold non-standard residues; d marks the D form. Peptide text beside a SMILES is read from it. * marks the point of attachment. Ala(1H-tetrazol-5-yl) = N[C@@H](Cc1nnn[nH]1)C(=O)O; Nle = CCCC[C@H](N)C(=O)O; Ms = CS(=O)(=O)*
Assays:
Type in all cases: physicochemical
[1] = Peptide stability test 1: aqueous solution, phosphate buffer pH 7.0, stored at 40° C., HPLC conditions 1; conditions: phosphate buffer pH 7.0, 40° C.; for survival rate after correction for water, 40° C., 1-month storage / survival rate after correction for water, 40° C., 2-month storage: 100 μM peptide; for survival rate after correction for water, 40° C., 2-month storage: 2 months
Protocol: Peptides 1 and 3 to 5 synthesized in Example 2 were weighed and dissolved in phosphate buffer (pH 7.0) to prepare 1.0 mM peptide solutions. The 1.0 mM peptide solutions were then diluted with phosphate buffer to 100 μM. After filtering with. Chromatdisk (product of Merck Millipore, Millex-GV, 0.22 μm), each filtrate was dispensed into an LC vial (Waters Deactivated Qsert Vial). The prepared peptide solutions were incubated for one month or 2 months in a 40° C. thermostatic bath to obtain stored samples. A simultaneously prepared sample among the peptide solutions that was not stored was used as a standard sample (initial sample). The standard sample and the stored samples were stored at −30° C. until sample analysis.
Using the total weight of the aqueous peptide solution and storage vessel as the specimen weight, measurements were recorded as the specimen weights before storage and the specimen weights after storage under different storage conditions. The empty weight of the storage vessel was also measured, and the moisture permeability was determined by the following formula.
After stirring the standard sample and the stored samples on a vortex mixer, each peptide solution was transferred to an HPLC vial (Deactivated Qsert vial by Waters Co.). Reverse-phase HPLC (HPLC system: Prominence by Shimadzu Corp.) was conducted under the conditions shown in Table 3 below for analysis of the_peptide solutions, and chromatograms were obtained.
Column: XSelect CSH C18 by Waters Co., 5 μm, 4.6×250 mm
Guard column: XSelect CSH C18 by Waters. Co., 5 μm, 4.6×20 mm Guard Cartridge
Detection wavelength: 220 nm
Mobile phase A: 0.1% formic acid in water
Mobile phase B: 0.1% formic acid in acetonitrile
Measuring time: 30 minutes
Measuring sample injection rate: 50 μL
Column temperature: 40° C.
Mobile phase delivery: The mixing ratio of mobile phase A and mobile phase B was varied as shown in Table 3 for linear concentration gradient control.
The peak area value for the peptide in the chromatogram was calculated, and the survival rate (survival rate before correction for water) was calculated using formula (2). The survival rate after correction for water was also calculated from the survival rate before correction for water using formula (3), taking into account the moisture permeability of the container.

[2] = Peptide stability tests 2 and 3: Tris buffer pH 7.0, stored at 60° C., HPLC conditions 2; conditions: 100 μM peptide, Tris buffer pH 7.0, 60° C.
Procedure, shortened: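 Survival rate, corrected for water, was quantified by reversed-phase C18 HPLC (220 nm; formic acid water/acetonitrile gradient; 40° C. column) against an initial unstored standard. Samples were 100 μM peptide in pH 7.0 Tris stored 1–2 weeks at 60° C.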

[3] = Peptide stability test 4: phosphate buffer pH 7.0, stored at 40° C.; conditions: phosphate buffer pH 7.0, 40° C.; for survival rate after correction for water, 40° C., 1-month storage / survival rate after correction for water, 40° C., 2-month storage: 100 μM peptide; for survival rate after correction for water, 40° C., 2-month storage: 2 months
Protocol: Peptides 10 and 11 synthesized in Example 2 were weighed and dissolved in phosphate buffer (pH 7.0) to prepare 1.0 mM peptide solutions. The solutions were filtered with a Chromatdisk (product of Merck Millipore, Millex-GV, 0.22 Each filtrate was diluted to 100 μM with phosphate buffer (pH 7.0) and dispensed into a tube (Protein LoBind Tube by Eppendorf Co.). The prepared peptides were incubated for one month or 2 months in a 40° C. thermostatic bath to obtain stored samples. A simultaneously prepared sample among the peptide solutions that was not stored was used as a standard sample (initial sample). The standard sample and the stored samples were stored at −30° C. until sample analysis.
The survival rate after correction for water for each peptide among the stored samples was measured in the same manner as Example 4, and the results are shown in Table 8.

| stability in aqueous solution, in words [3] | SMILES | survival rate after correction for water, 40° C., 1-month storage [1] | survival rate after correction for water, 40° C., 2-month storage [1] | survival rate after correction for water, 60° C., 1-week storage ([2]; 1 week) | survival rate after correction for water, 60° C., 2-week storage ([2]; 2 weeks) | stability in aqueous solution, in words [1] | survival rate after correction for water, 40° C., 1-month storage [3] | survival rate after correction for water, 40° C., 2-month storage [3] |
| --- | --- | --- | --- | --- | --- | --- | --- | --- |
| stabilized to the same degree | CC[C@H](C)[C@H](NC(=O)CNC(=O)[C@H](Cc1nnn[nH]1)NC(=O)[C@H](CO)NC(=O)[C@H](Cc1c[nH]cn1)NC(C)=O)C(=O)N[C@@H](Cc1ccccc1)C(=O)N[C@H](C(=O)N[C@@H](Cc1nnn[nH]1)C(=O)N[C@@H](CO)C(=O)N[C@@H](Cc1ccc(O)cc1)C(=O)N[C@@H](CO)C(=O)N[C@@H](CCCNC(=N)N)C(=O)N[C@@H](Cc1ccc(O)cc1)C(=O)N[C@@H](CCCNC(=N)N)C(=O)N[C@@H](CCCCN)C(=O)N[C@@H](CCC(N)=O)C(=O)N[C@@H](CCSC)C(=O)N[C@@H](C)C(=O)N[C@H](C(=O)N[C@@H](CCCCN)C(=O)N[C@@H](CCCCN)C(=O)N[C@@H](Cc1ccc(O)cc1)C(=O)N[C@@H](CC(C)C)C(=O)N[C@@H](C)C(=O)N[C@@H](C)C(=O)N[C@H](C(=O)N[C@@H](CC(C)C)C(N)=O)C(C)C)C(C)C)[C@@H](C)O [Peptide 10] (Ac-HS[Ala(1H-tetrazol-5-yl)]GIFT[Ala(1H-tetrazol-5-yl)]SYSRYRKQMAVKKYLAAVL-NH2) |  |  |  |  |  | 94.0% | 87.8% |
| stabilized to the same degree | CCCC[C@H](NC(=O)[C@H](CCC(N)=O)NC(=O)[C@H](CCCCN)NC(=O)[C@H](CCCNC(=N)N)NC(=O)[C@H](Cc1ccc(O)cc1)NC(=O)[C@H](CCCNC(=N)N)NC(=O)[C@H](CO)NC(=O)[C@H](Cc1ccc(O)cc1)NC(=O)[C@H](CO)NC(=O)[C@H](Cc1nnn[nH]1)NC(=O)[C@@H](NC(=O)[C@H](Cc1ccccc1)NC(=O)[C@@H](NC(=O)CNC(=O)[C@H](Cc1nnn[nH]1)NC(=O)[C@H](CO)NC(=O)[C@H](Cc1c[nH]cn1)NS(C)(=O)=O)[C@@H](C)CC)[C@@H](C)O)C(=O)N[C@@H](C)C(=O)N[C@H](C(=O)N[C@@H](CCCCN)C(=O)N[C@@H](CCCCN)C(=O)N[C@@H](Cc1ccc(O)cc1)C(=O)N[C@@H](CC(C)C)C(=O)N[C@@H](C)C(=O)N[C@@H](C)C(=O)N[C@H](C(=O)N[C@@H](CC(C)C)C(N)=O)C(C)C)C(C)C [Peptide 11] (Ms-HS[Ala(1H-tetrazol-5-yl)]GIFT[Ala(1H-tetrazol-5-yl)]SYSRYRKQ[Nle]AVKKYLAAVL-NH2) |  |  |  |  |  | 94.2% | 88.8% |

Continued, molecule first:

| SMILES | stability in aqueous solution, in words [3] | survival rate after correction for water, 40° C., 1-month storage [1] | survival rate after correction for water, 40° C., 2-month storage [1] | survival rate after correction for water, 60° C., 1-week storage ([2]; 1 week) | survival rate after correction for water, 60° C., 2-week storage ([2]; 2 weeks) | stability in aqueous solution, in words [1] | survival rate after correction for water, 40° C., 1-month storage [3] | survival rate after correction for water, 40° C., 2-month storage [3] |
| --- | --- | --- | --- | --- | --- | --- | --- | --- |
| CC[C@H](C)[C@H](NC(=O)CNC(=O)[C@H](CC(=O)O)NC(=O)[C@H](CO)NC(=O)[C@@H](N)Cc1c[nH]cn1)C(=O)N[C@@H](Cc1ccccc1)C(=O)N[C@H](C(=O)N[C@@H](CC(=O)O)C(=O)N[C@@H](CO)C(=O)N[C@@H](Cc1ccc(O)cc1)C(=O)N[C@@H](CO)C(=O)N[C@@H](CCCNC(=N)N)C(=O)N[C@@H](Cc1ccc(O)cc1)C(=O)N[C@@H](CCCNC(=N)N)C(=O)N[C@@H](CCCCN)C(=O)N[C@@H](CCC(N)=O)C(=O)N[C@@H](CCSC)C(=O)N[C@@H](C)C(=O)N[C@H](C(=O)N[C@@H](CCCCN)C(=O)N[C@@H](CCCCN)C(=O)N[C@@H](Cc1ccc(O)cc1)C(=O)N[C@@H](CC(C)C)C(=O)N[C@@H](C)C(=O)N[C@@H](C)C(=O)N[C@H](C(=O)N[C@@H](CC(C)C)C(N)=O)C(C)C)C(C)C)[C@@H](C)O [Peptide 1, reference compound] |  | 37.4% | 21.3% | 26.6% | 15.8% |  |  |  |
| CC[C@H](C)[C@H](NC(=O)CNC(=O)[C@H](Cc1nnn[nH]1)NC(=O)[C@H](CO)NC(=O)[C@@H](N)Cc1c[nH]cn1)C(=O)N[C@@H](Cc1ccccc1)C(=O)N[C@H](C(=O)N[C@@H](CC(=O)O)C(=O)N[C@@H](CO)C(=O)N[C@@H](Cc1ccc(O)cc1)C(=O)N[C@@H](CO)C(=O)N[C@@H](CCCNC(=N)N)C(=O)N[C@@H](Cc1ccc(O)cc1)C(=O)N[C@@H](CCCNC(=N)N)C(=O)N[C@@H](CCCCN)C(=O)N[C@@H](CCC(N)=O)C(=O)N[C@@H](CCSC)C(=O)N[C@@H](C)C(=O)N[C@H](C(=O)N[C@@H](CCCCN)C(=O)N[C@@H](CCCCN)C(=O)N[C@@H](Cc1ccc(O)cc1)C(=O)N[C@@H](CC(C)C)C(=O)N[C@@H](C)C(=O)N[C@@H](C)C(=O)N[C@H](C(=O)N[C@@H](CC(C)C)C(N)=O)C(C)C)C(C)C)[C@@H](C)O [Peptide 3] |  | 76.5% | 60.7% |  |  | higher stability than peptide 1 |  |  |
| CC[C@H](C)[C@H](NC(=O)CNC(=O)[C@H](CC(=O)O)NC(=O)[C@H](CO)NC(=O)[C@@H](N)Cc1c[nH]cn1)C(=O)N[C@@H](Cc1ccccc1)C(=O)N[C@H](C(=O)N[C@@H](Cc1nnn[nH]1)C(=O)N[C@@H](CO)C(=O)N[C@@H](Cc1ccc(O)cc1)C(=O)N[C@@H](CO)C(=O)N[C@@H](CCCNC(=N)N)C(=O)N[C@@H](Cc1ccc(O)cc1)C(=O)N[C@@H](CCCNC(=N)N)C(=O)N[C@@H](CCCCN)C(=O)N[C@@H](CCC(N)=O)C(=O)N[C@@H](CCSC)C(=O)N[C@@H](C)C(=O)N[C@H](C(=O)N[C@@H](CCCCN)C(=O)N[C@@H](CCCCN)C(=O)N[C@@H](Cc1ccc(O)cc1)C(=O)N[C@@H](CC(C)C)C(=O)N[C@@H](C)C(=O)N[C@@H](C)C(=O)N[C@H](C(=O)N[C@@H](CC(C)C)C(N)=O)C(C)C)C(C)C)[C@@H](C)O [Peptide 4] (H-HSDGIFT[Ala(1H-tetrazol-5-yl)]SYSRYRKQMAVKKYLAAVL-NH2) |  | 42.8% | 28.2% |  |  | increased stability compared to peptide 1 |  |  |
| CC[C@H](C)[C@H](NC(=O)CNC(=O)[C@H](Cc1nnn[nH]1)NC(=O)[C@H](CO)NC(=O)[C@@H](N)Cc1c[nH]cn1)C(=O)N[C@@H](Cc1ccccc1)C(=O)N[C@H](C(=O)N[C@@H](Cc1nnn[nH]1)C(=O)N[C@@H](CO)C(=O)N[C@@H](Cc1ccc(O)cc1)C(=O)N[C@@H](CO)C(=O)N[C@@H](CCCNC(=N)N)C(=O)N[C@@H](Cc1ccc(O)cc1)C(=O)N[C@@H](CCCNC(=N)N)C(=O)N[C@@H](CCCCN)C(=O)N[C@@H](CCC(N)=O)C(=O)N[C@@H](CCSC)C(=O)N[C@@H](C)C(=O)N[C@H](C(=O)N[C@@H](CCCCN)C(=O)N[C@@H](CCCCN)C(=O)N[C@@H](Cc1ccc(O)cc1)C(=O)N[C@@H](CC(C)C)C(=O)N[C@@H](C)C(=O)N[C@@H](C)C(=O)N[C@H](C(=O)N[C@@H](CC(C)C)C(N)=O)C(C)C)C(C)C)[C@@H](C)O [Peptide 5] (H-HS[Ala(1H-tetrazol-5-yl)]GIFT[Ala(1H-tetrazol-5-yl)]SYSRYRKQMAVKKYLAAVL-NH2) |  | 94.7% | 85.6% |  |  | further increased stability over peptide 3 and peptide 4 |  |  |
